System: comedones
Conditions: topical
Method: As an example, the comedolytic power of all-trans 2-retinoyl phosphatidinyl ethanol was tested following the protocol below:
The animal chosen for the test of comedolytic activity was the Hairless Rhino (hr rh) mouse of female sex, this choice being due to the fact that the skin of such an animal has a high density of comedones having a large diameter and narrow orifice. The use of comedolytic agents on the skin of the animal provokes the opening of the orifice of the comedones, the release of the horny material and the sebum that it contains.
Two groups comprising six mice each which were six-week's old at the start of the test and weighing on average 18 grams each were used. The first group were mice treated with distilled water (negative control group) and the second group were mice treated with the product under study. The treatment consisted of a topical use of the product studied on the interscapular area at a dose of 0.02 ml, 5 days out of 7, for 21 days. The animals were sacrificed at the end of three weeks of treatment, 24 hours after the last application.
Biopsies of the skin were then taken from the treated areas of the animals and from these biopsies, sections were prepared for a standard morphometric study by methods known to a person skilled in the art. The following parameters were measured: diameter of the opening of the comedon at the surface i.e d […]
comedonian profile i.e R = d/D
The ratio R=d/D allowed the action of the comedolytic agents to be quantified.
The percentage of inhibition of the comedones was calculated for the product under study relative to the negative control, i.e. the following ratio: [formula]

all-trans 2-retinoyl phosphatidinyl ethanol
% inhibition of the comedones relative to the negative control (0.1% in solution in ethylenediglycol, interscapular, 0.02 ml, 5 days out of 7, for 21 days): 14.1% | comedonian profile R = d/D (diameter of the opening of the comedon at the surface / diameter of the comedon) (0.1% in solution in ethylenediglycol, interscapular, 0.02 ml, 5 days out of 7, for 21 days, negative control (distilled water) R = 0.78): 0.89 | comedolytic activity (in words) (at a dose of 0.1%, 21 days): good comedolytic activity
